This test has as its target T1, hGOAT (human ghrelin O-acyltransferase) (Homo sapiens, UniProt Q96T53).
T1 construct: made in house; host or cells: Sf9 insect cells (membrane/microsomal fraction)
T1 sequence (Q96T53 1-435): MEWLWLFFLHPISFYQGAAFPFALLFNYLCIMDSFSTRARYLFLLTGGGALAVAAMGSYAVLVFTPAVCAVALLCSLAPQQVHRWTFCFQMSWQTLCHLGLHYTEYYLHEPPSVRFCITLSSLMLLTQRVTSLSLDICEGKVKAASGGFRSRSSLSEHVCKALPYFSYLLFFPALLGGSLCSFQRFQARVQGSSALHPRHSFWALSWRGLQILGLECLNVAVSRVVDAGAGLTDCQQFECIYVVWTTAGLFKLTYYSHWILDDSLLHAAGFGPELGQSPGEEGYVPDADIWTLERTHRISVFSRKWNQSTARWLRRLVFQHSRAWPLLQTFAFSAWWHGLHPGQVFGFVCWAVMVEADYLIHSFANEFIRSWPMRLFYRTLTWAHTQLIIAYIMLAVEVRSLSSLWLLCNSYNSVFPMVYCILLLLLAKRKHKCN
Description: GOAT ghrelin acylation (octanoylation) inhibition assay, membrane fraction of Sf9 cells expressing hGOAT, HPLC readout. The format is biochemical. Conditions: for IC50: average of three independent trials; for IC50 relative to parent ligand 5: fold change relative to ligand 5; for change in binding potency with PEG3 linker B compared to linker A: primed ligand (linker B) relative to unprimed ligand (linker A). The procedure: The microsomal fraction containing hGOAT for the ligand-binding studies by IC50 determination was prepared according to published protocols. For the GOAT inhibition assay, serial dilutions of 0, 0.15, 0.5, 1, 5, 15, and 50 µM concentrations were prepared in 50% acetonitrile for each ligand used. The membrane fractions from the Sf9 cells expressing GOAT were first thawed on ice then passed through an 18-gauge needle 10 times to homogenize them. The assays were performed with approximately 30 µg of the membrane protein as determined through a Bradford assay. The standard reaction conditions contained 50 mM HEPES pH 7.0, 1 µM MAFP, 30 µg of membrane protein, and ultrapure water. The ligands were added to the reaction mixtures and incubated for 30 min at room temperature protected from light prior to the reaction initiation. The reactions were initiated by octanoyl CoA (300 µM final concentration) and GSSFLCAcdan (0.3 µM final concentration) in a total reaction volume of 50 µL. […] The reactions were stopped with 50 µL of 20% acetic acid in isopropanol. The excess membrane fraction was precipitated with 16.7 µL of 40% trichloroacetic acid (TCA) followed by a 1000× g centrifugation for 2 min. The supernatant was then analyzed via reverse-phase HPLC in 100 µL samples as previously described. The inhibition trials were run in triplicate, with the reported IC50 values representing the average of at least three trials. The IC50 values for all LCs are reported in Supplemental Table S2.
The assays were analyzed on reverse-phase HPLC (Zorbax Eclipse XDB column, 4.6 × 150 mm) using a solvent gradient from […] in aqueous 0.05% TFA over 5 min at a flow rate of 1 mL/min, followed by a gradient of […] in 0.05% TFA over 1 min, 100% acetonitrile for 5 min, and a gradient of 100% acetonitrile to 30% acetonitrile in 0.05% TFA for 5 min. The total time for each run was 16 min. The peptides were detected by the attached acrylodan label with the UV absorbance at 360 nm and fluorescence (λex = 360 nm, λem = 485 nm). The octanoylated peptide typically eluted at around 7.5 min, with the unreacted peptide eluting at around 2.5 min. Chemstation for LC (Agilent Technologies) was used for peak integration.
The peak integrations were used to determine the percent conversion in the presence of either the inhibitor (ligand, LC) or the vehicle (50% acetonitrile). The percent activity was calculated using Equation (1):(1) % peptide octanoylationa=fluorescence of octanoylated peptide/total peptide fluorescence,
IC50 values were determined by fitting Equation (2) to the plot of % activity against inhibitor concentration:(2) % activity=% vehicle1−Inhibitor/Inhibitor+IC50
[formula] Scheme 1 The GOAT inhibition assay for determining ligand binding. The octanoylation of a fluorescently labeled ghrelin-mimetic peptide substrate is inhibited by LC binding, with GOAT octanoylation activity and inhibition determined as described in the Section 2.

The mark [1] stands for this setting: ± one standard deviation, read-out: IC50 against hGOAT.

The text below walks through data of publication PMC11852496, “A Modular Customizable Ligand-Conjugate (LC) System Targeting Ghrelin O-Acyltransferase” (Biomolecules, 2025).

Where “and” joins values, the source holds several entries; their conditions need not be identical. Identical values can stand only once. Like-named read-outs stand apart in the source and are kept apart here. Non-standard residues stand in square brackets, D forms with d. Residues, ends and D or L forms follow the SMILES beside them. *: point of attachment. X4 = CN1C(=C/C=C/C=C/C2=[N+](CCCCCC(=O)NCCCn3cc(COC[C@H]4CC[C@H](CN5C(=O)CC(*)C5=O)CC4)nn3)c3ccc(S(=O)(=O)[O-])cc3C2(C)C)C(C)(C)c2cc(S(=O)(=O)O)ccc21; X2 = N=c1ccc2c(-c3ccc(C(=O)NCCCn4cc(COC[C@H]5CC[C@H](CN6C(=O)CC(*)C6=O)CC5)nn4)cc3C(=O)O)c3ccc(N)c(S(=O)(=O)O)c3oc-2c1S(=O)(=O)O; X5 = COc1cc(/N=N/c2ccc(C)cc2[N+](=O)[O-])c(C)cc1/N=N/c1ccc(N(C)CCCC(=O)NCCn2cc(COC[C@H]3CC[C@H](CN4C(=O)CC(*)C4=O)CC3)nn2)cc1; X3 = O=C(NCCCn1cc(COC[C@H]2CC[C@H](CN3C(=O)CC(*)C3=O)CC2)nn1)c1ccc2c(c1)C(=O)OC21c2ccc(O)cc2Oc2cc(O)ccc21; X7 = C#CCOC[C@H]1CC[C@H](CN2C(=O)CC(*)C2=O)CC1; 1Nal = N[CH](Cc1cccc2ccccc12)C(=O)O; X1 = O=C1NC2CSC(CCCCC(=O)*)C2N1; PEG3 = NCCOCCOCCOCCC(=O)O; Dap = NC[CH](N)C(=O)O

Take `CC(C)CC(NC(=O)C(Cc1cccc2ccccc12)NC(=O)C(CN)NC(=O)C(CO)NC(=O)CN)C(=O)NC(CO)C(=O)N1CCCC1C(=O)NC(C(=O)NCCOCCOCCOCCC(=O)NC(CS)C(N)=O)C(C)O` (stereo not drawn) [Ligand 3] (H-GS[Dap][1Nal]LSPT[PEG3]C-NH2; configuration not given here): the IC50 – broadly, the concentration that inhibits the measured activity by half – under setting [1] was 28.9 nM and 29 nM.
For the molecule `C#CCOC[C@H]1CC[C@H](CN2C(=O)CC(SC[C@H](NC(=O)CCOCCOCCOCCNC(=O)[C@@H](NC(=O)[C@@H]3CCCN3C(=O)[C@H](CO)NC(=O)[C@H](CC(C)C)NC(=O)[C@H](Cc3cccc4ccccc34)NC(=O)[C@H](CN)NC(=O)[C@H](CO)NC(=O)CN)[C@@H](C)O)C(N)=O)C2=O)CC1` (stereo partly drawn) [Ligand 5, H-GS-Dap-Nal-1-LSPT-Mini-PEG3a-C-Linker] (H-GS[Dap][1Nal]LSPT[PEG3]C(X7)-NH2), the IC50 under setting [1] was 13 ± 1 nM.
With `CC(C)C[C@H](NC(=O)[C@H](Cc1cccc2ccccc12)NC(=O)[C@H](CN)NC(=O)[C@H](CO)NC(=O)CN)C(=O)N[C@@H](CO)C(=O)N1CCC[C@H]1C(=O)N[C@H](C(=O)NCCOCCOCCOCCC(=O)N[C@@H](CCn1cc(COC[C@H]2CC[C@H](CN3C(=O)C=CC3=O)CC2)nn1)C(N)=O)[C@@H](C)O` [Ligand 6, H-GS-Dap-Nal-1-LSPT-Mini-PEG3a-AHA-Linker], the IC50 is, setting by setting: (apparent IC50, read-out: IC50 against hGOAT) > 1000 nM and 1000 nM; under setting [1], 1050 ± 79.5 nM.
As to `CC(C)C[C@H](NC(=O)[C@H](Cc1cccc2ccccc12)NC(=O)[C@H](CN)NC(=O)[C@H](CO)NC(=O)CN)C(=O)N[C@@H](CO)C(=O)N1CCC[C@H]1C(=O)N[C@H](C(=O)NCCOCCOCCOCCC(=O)N[C@@H](CSC1CC(=O)N(C[C@H]2CC[C@H](COCc3cn(CCCNC(=O)c4ccc(-c5c6ccc(=N)c(S(=O)(=O)O)c-6oc6c(S(=O)(=O)O)c(N)ccc56)c(C(=O)O)c4)nn3)CC2)C1=O)C(N)=O)[C@@H](C)O` (stereo partly drawn) [Ligand 7, H-GS-Dap-Nal-1-LSPT-Mini-PEG3a-C-Linker-AF488azide] (H-GS[Dap][1Nal]LSPT[PEG3]C(X2)-NH2), the “IC50 relative to parent ligand 5” value was “six- to eight-fold higher”.
Take `CC(C)C[C@H](NC(=O)[C@H](Cc1cccc2ccccc12)NC(=O)[C@H](CN)NC(=O)[C@H](CO)NC(=O)CN)C(=O)N[C@@H](CO)C(=O)N1CCC[C@H]1C(=O)N[C@H](C(=O)NCCOCCOCCOCCC(=O)N[C@@H](CSC1CC(=O)N(C[C@H]2CC[C@H](COCc3cn(CCCNC(=O)c4ccc5c(c4)C(=O)OC54c5ccc(O)cc5Oc5cc(O)ccc54)nn3)CC2)C1=O)C(N)=O)[C@@H](C)O` (stereo partly drawn) [Ligand 8, H-GS-Dap-Nal-1-LSPT-Mini-PEG3-C-Linker-FAM5azide] (H-GS[Dap][1Nal]LSPT[PEG3]C(X3)-NH2): the “IC50 relative to parent ligand 5” value is “six- to eight-fold higher”. For the same molecule, the IC50 under setting [1] was 73.8 ± 4.8 nM.
As to `CC(C)C[C@H](NC(=O)[C@H](Cc1cccc2ccccc12)NC(=O)[C@H](CN)NC(=O)[C@H](CO)NC(=O)CN)C(=O)N[C@@H](CO)C(=O)N1CCC[C@H]1C(=O)N[C@H](C(=O)NCCOCCOCCOCCC(=O)N[C@@H](CSC1CC(=O)N(C[C@H]2CC[C@H](COCc3cn(CCCNC(=O)CCCCC[N+]4=C(/C=C/C=C/C=C5N(C)c6ccc(S(=O)(=O)O)cc6C5(C)C)C(C)(C)c5cc(S(=O)(=O)[O-])ccc54)nn3)CC2)C1=O)C(N)=O)[C@@H](C)O` (stereo partly drawn) [Ligand 9, H-GS-Dap-Nal-1-LSPT-Mini-PEG3a-C-Linker-SulfoCy5azide] (H-GS[Dap][1Nal]LSPT[PEG3]C(X4)-NH2), the “IC50 relative to parent ligand 5” value is recorded as “six- to eight-fold higher”. Further, the IC50 under setting [1] is 84.4 ± 11.5 nM.
`COc1cc(/N=N/c2ccc(C)cc2[N+](=O)[O-])c(C)cc1/N=N/c1ccc(N(C)CCCC(=O)NCCn2cc(COC[C@H]3CC[C@H](CN4C(=O)CC(SC[C@H](NC(=O)CCOCCOCCOCCNC(=O)[C@@H](NC(=O)[C@@H]5CCCN5C(=O)[C@H](CO)NC(=O)[C@H](CC(C)C)NC(=O)[C@H](Cc5cccc6ccccc56)NC(=O)[C@H](CN)NC(=O)[C@H](CO)NC(=O)CN)[C@@H](C)O)C(N)=O)C4=O)CC3)nn2)cc1` (stereo partly drawn) [Ligand 12, H-GS-Dap-Nal-1-LSPT-Mini-PEG3-C-Linker-AzoDye1azide] (H-GS[Dap][1Nal]LSPT[PEG3]C(X5)-NH2): under setting [1], the IC50 came out at 5.9 ± 1.7 nM.
`CC(C)CC(NC(=O)C(Cc1cccc2ccccc12)NC(=O)C(CN)NC(=O)C(CO)NC(=O)CN)C(=O)NC(CO)C(=O)N1CCCC1C(=O)NC(C(=O)NCCOCCOCCOCCC(=O)NC(CCCCNC(=O)CCCCC1SCC2NC(=O)NC21)C(N)=O)C(C)O` (stereo not drawn) [Ligand 13] (H-GS[Dap][1Nal]LSPT[PEG3]K(X1)-NH2; configuration not given here): the IC50 under setting [1] is 51.8 ± 5.7 nM.
Turning to `COc1cc2cc(c1Cl)N(C)C(=O)C[C@H](OC(=O)[C@H](C)N(C)C(=O)CCSC1CC(=O)N(C[C@H]3CC[C@H](COCc4cn(CC[C@H](NC(=O)CCOCCOCCOCCNC(=O)[C@@H](NC(=O)[C@@H]5CCCN5C(=O)[C@H](CO)NC(=O)[C@H](CC(C)C)NC(=O)[C@H](Cc5cccc6ccccc56)NC(=O)[C@H](CN)NC(=O)[C@H](CO)NC(=O)CN)[C@@H](C)O)C(N)=O)nn4)CC3)C1=O)[C@]1(C)O[C@H]1[C@H](C)[C@@H]1C[C@@](O)(NC(=O)O1)[C@H](OC)/C=C/C=C(\C)C2` (stereo partly drawn) [Ligand 14, H-GS-Dap-Nal-1-LSPT-Mini-PEG3a-AHA-Linker-Mertansine], under “IC50 against hGOAT, ± one standard deviation”, the IC50 was 18.8 nM and ~20 nM.
Consider `CC(C)C[C@H](NC(=O)[C@H](Cc1cccc2ccccc12)NC(=O)[C@H](CN)NC(=O)[C@H](CO)NC(=O)CN)C(=O)N[C@@H](CO)C(=O)N1CCC[C@H]1C(=O)N[C@H](C(=O)NCCOCCOCCOCCC(=O)N[C@@H](CSC1CC(=O)N(CCNC(=O)CCCCC[N+]2=C(/C=C/C=C/C=C3N(C)c4ccc(S(=O)(=O)O)cc4C3(C)C)C(C)(C)c3cc(S(=O)(=O)[O-])ccc32)C1=O)C(N)=O)[C@@H](C)O` (stereo partly drawn) [Ligand 16], for which the IC50 under setting [1] is 56.8 ± 8.6 nM.
With `COc1cc(/N=N/c2ccc(C)cc2[N+](=O)[O-])c(C)cc1/N=N/c1ccc(N(C)CCCC(=O)NCc2cn(CC[C@H](NC(=O)CCOCCOCCOCCNC(=O)[C@@H](NC(=O)[C@@H]3CCCN3C(=O)[C@H](CO)NC(=O)[C@H](CC(C)C)NC(=O)[C@H](Cc3cccc4ccccc34)NC(=O)[C@H](CN)NC(=O)[C@H](CO)NC(=O)CN)[C@@H](C)O)C(N)=O)nn2)cc1` [Ligand 17, H-GS-Dap-Nal-1-LSPT-Mini-PEG3a-AHA-AzoDye1alkyne], the IC50 under setting [1] was determined as 3.9 ± 0.4 nM.
In the case of “H-GS-Dap-Nal-1-LSPT-Mini-PEG3a-C-Linker-TideQuencher2azide [Ligand 11]”, the “IC50 relative to parent ligand 5” value is given as “approximately two-fold higher”. Also, the IC50 under setting [1] is 25.7 ± 6.2 nM.
In the case of “H-GS-Dap-Nal-1-LSPT-Mini-PEG3b-C-NH2 [Ligand 3’]”, the “change in binding potency with PEG3 linker B compared to linker A” value is “approximately four-fold drop”.
Same read-out and setting: for “H-GS-Dap-Nal-1-LSPT-Mini-PEG3b-C-SulfoCy5maleimide [Ligand 16’]” the value was “approximately two-fold increase”.
